Legend:
[1] = Solubility of gemcabene calcium salt Crystal Form 1 by solvent addition method; format: physicochemical
Procedure: Approximately 20 mg of gemcabene calcium Crystal Form 1 was added to 5×2 mL vials. The solubility in 5 solvents was tested using a solvent addition method. Solvents included acetone, ethanol, ethyl acetate, t-butyl methyl ether (t-BME) and water. Solvent was added in 5 volume (100 μL) aliquots until either dissolution or 2 mL in total had been added. Between each addition, samples were heated to 60° C. (40° C. for acetone and t-BME). Any solids remaining after 24 hours at ambient were analyzed by X-ray powder diffraction (XRPD).

[2] = Particle size distribution by laser light diffraction (Malvern Mastersizer 2000, Fraunhofer); format: physicochemical; settings: cumulative volume
Procedure: In some embodiments, the particle size distribution and the PSD90 of a compound of the invention is determined by the laser light diffraction particle size distribution analysis. The particle size distribution is determined in accordance with the Fraunhofer light diffraction method. In this method, a coherent laser beam passes through the sample and the resulting diffraction pattern is focused on a multi-element detector. Since the diffraction pattern depends, among other parameters, on particle size, the particle size distribution can be calculated based on the measured diffraction pattern of the sample. The method is described in more detail in USP38-NF33, <429> Light Diffraction Measurement of Particle Size.
The particle size distribution was determined in accordance with the Fraunhofer light diffraction method. A coherent laser beam was passed through the sample and the resulting diffraction pattern was focused on a multi-element detector. Because the diffraction pattern depends, among other parameters, on particle size, the particle size distribution (PSD) was calculated based on the measured diffraction patter of the sample.
Stock dispersion solution was prepared by adding a few drops of the dispersing aid (e.g., 1% w/w solution of a detergent in white spirit such as Span 80, Fluka (85548-250 ml)) to an appropriate amount of substance and mixed carefully. The dispersion was then slowly diluted to a final volume of about 10 ml while vortexing. The suspension cell of the instrument (Malvern Mastersizer 2000 equipped with Hydro 2000S sample dispersion unit) was filled with dispersion medium and a background measurement was taken. […] The cumulative volume distribution was determined in accordance with the instrument's instruction manual.
The PSD10, PSD50, and PSD90 values were determined from the cumulative volume distribution of each measurement. Values smaller than 10 μm were reported to one decimal place. Results larger than 10 μm were reported as single digit values. Sample parameters used in analysis are shown below: […]

[3] = 12-week placebo-controlled study of 600 mg QD in hypercholesterolemia patients on statins: safety and tolerability; format: in vivo; settings: add-on to highest doses of background statins
Procedure: High-risk patients including some, but not all those with heterozygous familial hypercholesterolemia (HeFH) or atherosclerotic cardiovascular disease (ASCVD) on appropriate diet and stable statin therapy for at least 12 weeks and LDL-C ≥100 mg/dL (2.59 mmol/L) and triglycerides <500 mg/dL (5.65 mmol/L) were randomized into a 12-week, placebo-controlled, parallel-group, double-blind study to assess the efficacy of gemcabene calcium salt hydrate Crystal Form 1 (PSD90=52 μm) 600 mg (300-mg Tablet D×2) QD on LDL-C and other lipoproteins and hsCRP (high-sensitivity C-reactive protein). Safety and tolerability were also evaluated. The patients were stratified by high- or moderate-intensity statin therapy, with or without ezetimibe, with a target of 52 patients (26 patients on 600 mg gemcabene calcium salt hydrate Crystal Form 1 as administered by 2× Tablet D and 26 patients on placebo (“placebo”)) in each stratum. […] Mean baseline LDL-C for all patients was approximately 134 mg/dL (3.48 mmol/L) with most patients in the high-intensity statin stratum on atorvastatin and most patients in the moderate-intensity stratum on either simvastatin or atorvastatin.
33 of 54 patients (61.1%) in the Tablet D group and 24 of 51 patients (47.1%) in the placebo group who reported at least one AE during the study. The most prevalent AEs were those associated with infections. […]

SMILES: CC(C)(CCCCOCCCCC(C)(C)C(=O)[O-])C(=O)[O-].O.[Ca+2] [6-(5-Carboxy-5-methyl-hexyloxy)-2,2-dimethylhexanoic acid calcium (gemcabene calcium salt) hydrate Crystal Form 1]
- Solubility ([1]; /-Butyl Methyl Ether (t-BME)): <10 mg/mL
- Solubility ([1]; Acetone): <10 mg/mL
- Solubility ([1]; Ethanol): <10 mg/mL
- Solubility ([1]; Ethyl Acetate): <10 mg/mL
- Solubility ([1]; Water): 33 mg/mL
- D10 (PSD10) [2]: D10 = 8.9 μm
- D50 (PSD50) [2]: D50 = 24.3 μm
- D90 (PSD90) [2]: D90 = 44.1 μm
- muscle or liver related toxicities [3]: No evidence
